ChEMBL document CHEMBL4118195, “Synthesis and profiling of benzylmorpholine 1,2,4,5-tetraoxane analogue N205: Towards tetraoxane scaffolds with potential for single dose cure of malaria” (Bioorg Med Chem, 2018)

Experiments:
[1] = Retention time of the compound; assay type: physicochemical
Cytochrome P450 1A2 = target: T1, Cytochrome P450 1A2 (Homo sapiens, UniProt P05177); experiment: Inhibition of CYP1A2 in human liver microsomes assessed as phenacetin O-deethylation after 4 to 40 mins in presence of NADPH by LCMS analysis; assay type: ADME
T1 sequence (P05177 whole entry): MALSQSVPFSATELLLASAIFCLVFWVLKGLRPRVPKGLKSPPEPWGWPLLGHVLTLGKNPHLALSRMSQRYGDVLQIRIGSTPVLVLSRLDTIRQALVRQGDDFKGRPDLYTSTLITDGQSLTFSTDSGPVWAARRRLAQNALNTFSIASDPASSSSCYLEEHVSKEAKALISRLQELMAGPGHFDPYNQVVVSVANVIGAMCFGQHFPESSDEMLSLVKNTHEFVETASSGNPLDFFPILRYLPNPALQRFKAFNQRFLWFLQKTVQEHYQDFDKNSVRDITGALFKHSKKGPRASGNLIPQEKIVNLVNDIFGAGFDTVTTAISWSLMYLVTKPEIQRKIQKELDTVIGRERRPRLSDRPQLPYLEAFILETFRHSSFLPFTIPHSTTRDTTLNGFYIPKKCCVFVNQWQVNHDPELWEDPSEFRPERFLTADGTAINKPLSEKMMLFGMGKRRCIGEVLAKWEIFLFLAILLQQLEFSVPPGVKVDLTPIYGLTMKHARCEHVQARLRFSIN

[2] = AUC (0 to t) in humanized NOD.Cg-Prkdcscid Il2rgtm1Wjl/SzJ mouse infected with Plasmodium falciparum Pf3D70087/N9 at 50 mg/kg, po administered as single dose by LC-MS/MS analysis; assay type: ADME, organism-based; conditions: in vivo
[3] = Drug metabolism in mouse liver microsomes assessed as deaminated morpholine metabolite formation at 5 uM after 60 mins by UPLC-MS analysis; assay type: ADME, microsome; conditions: 1 h
[4] = Plasma concentration in Plasmodium berghei infected mouse at 30 mg/kg, po administered as single dose after 24 hrs; assay type: ADME, organism-based
[5] = Drug metabolism in human liver microsomes assessed as cleaved morpholine ring metabolite formation at 5 uM after 60 mins by UPLC-MS analysis; assay type: ADME, microsome; conditions: 1 h
[6] = AUC (0 to t) in humanized NOD.Cg-Prkdcscid Il2rgtm1Wjl/SzJ mouse infected with Plasmodium falciparum Pf3D70087/N9 at 15 mg/kg, po administered as single dose by LC-MS/MS analysis; assay type: ADME, organism-based; conditions: in vivo
[7] = Drug metabolism in rat liver microsomes assessed as ring dehydrogenated metabolite formation at 5 uM after 60 mins by UPLC-MS analysis; assay type: ADME, microsome; conditions: 1 h
[8] = Cmax in humanized NOD.Cg-Prkdcscid Il2rgtm1Wjl/SzJ mouse infected with Plasmodium falciparum Pf3D70087/N9 at 15 mg/kg, po administered as single dose after 0.25 to 23 hrs by LC-MS/MS analysis; assay type: ADME, organism-based; set-up: dose 15 mg/kg, route oral; conditions: in vivo
[9] = Drug metabolism in mouse liver microsomes assessed as metabolite M-10(II) formation at 5 uM after 60 mins by UPLC-MS analysis; assay type: ADME, microsome; conditions: 1 h
Plasmodium falciparum = experiment: Antimalarial activity against Plasmodium falciparum 3D7 infected in human erythrocytes after 48 hrs by SYBR Green I dye-based fluorescence assay; assay type: functional, organism-based; conditions: 3D7, 48 h
Mus musculus [10] = experiment: Dose normalized Cmax in humanized NOD.Cg-Prkdcscid Il2rgtm1Wjl/SzJ mouse infected with Plasmodium falciparum Pf3D70087/N9 at 100 mg/kg, po administered as single dose after 0.25 to 23 hrs by LC-MS/MS analysis; assay type: ADME, organism-based; conditions: in vivo
Mus musculus [11] = experiment: Dose normalized AUC (0 to t) in humanized NOD.Cg-Prkdcscid Il2rgtm1Wjl/SzJ mouse infected with Plasmodium falciparum Pf3D70087/N9 at 5 mg/kg, po administered as single dose by LC-MS/MS analysis; assay type: ADME, organism-based; conditions: in vivo
[12] = Drug metabolism in human liver microsomes assessed as metabolite M+32 (II) formation at 5 uM after 60 mins by UPLC-MS analysis; assay type: ADME, microsome; conditions: 1 h
Mus musculus [13] = experiment: Dose normalized Cmax in humanized NOD.Cg-Prkdcscid Il2rgtm1Wjl/SzJ mouse infected with Plasmodium falciparum Pf3D70087/N9 at 5 mg/kg, po administered as single dose after 0.25 to 23 hrs by LC-MS/MS analysis; assay type: ADME, organism-based; conditions: in vivo
[14] = Metabolic stability in human blood after 2 to 4 hrs by LC-MS method; assay type: ADME, tissue-based
[15] = Drug metabolism in mouse liver microsomes assessed as morpholine dealkylated metabolite formation at 5 uM after 60 mins by UPLC-MS analysis; assay type: ADME, microsome; conditions: 1 h
[16] = Drug metabolism in rat liver microsomes assessed as bis-oxygenation and dehydrogenation metabolite formation at 5 uM after 60 mins by UPLC-MS analysis; assay type: ADME, microsome; conditions: 1 h
[17] = Drug metabolism in human liver microsomes assessed as metabolite M+16 (IV) formation at 5 uM after 60 mins by UPLC-MS analysis; assay type: ADME, microsome; conditions: 1 h
[18] = Drug metabolism in rat liver microsomes at 5 uM after 60 mins by UPLC-MS analysis; assay type: ADME, microsome; conditions: read-out: Drug metabolism
Cytochrome P450 2C9 = Cytochrome P450 2C9 (Homo sapiens, UniProt P11712); experiment: Inhibition of CYP2C9 in human liver microsomes assessed as tolbutamide methylhydroxylation after 4 to 40 mins in presence of NADPH by LCMS analysis; assay type: ADME
[19] = Drug metabolism in mouse liver microsomes assessed as metabolite M+32 (III) formation at 5 uM after 60 mins by UPLC-MS analysis; assay type: ADME, microsome; conditions: 1 h
[20] = Drug metabolism in mouse liver microsomes assessed as metabolite M+16 (IV) formation at 5 uM after 60 mins by UPLC-MS analysis; assay type: ADME, microsome; conditions: 1 h
[21] = Drug metabolism in human liver microsomes assessed as bis-oxygenation and dehydrogenation metabolite formation at 5 uM after 60 mins by UPLC-MS analysis; assay type: ADME, microsome; conditions: 1 h
[22] = Drug metabolism in rat liver microsomes assessed as deaminated morpholine metabolite formation at 5 uM after 60 mins by UPLC-MS analysis; assay type: ADME, microsome; conditions: 1 h
[23] = Tmax in humanized NOD.Cg-Prkdcscid Il2rgtm1Wjl/SzJ mouse infected with Plasmodium falciparum Pf3D70087/N9 at 5 mg/kg, po administered as single dose by LC-MS/MS analysis; assay type: ADME, organism-based; conditions: in vivo
[24] = Intrinsic clearance in mouse liver microsomes assessed per mg protein at 5 uM by UPLC-MS analysis; assay type: ADME, microsome; conditions: read-out: CLH
[25] = Drug metabolism in mouse liver microsomes assessed as open morpholine ring metabolite formation at 5 uM after 60 mins by UPLC-MS analysis; assay type: ADME, microsome; conditions: 1 h
[26] = Oral bioavailability in Sprague-Dawley rat at 100 mg/kg administered via gavage by LC/MS analysis; assay type: ADME, organism-based; conditions: in vivo
[27] = Drug degradation in mouse liver microsomes assessed as compound half life at 5 uM by UPLC-MS method; assay type: ADME, microsome
[28] = Drug metabolism in rat liver microsomes assessed as metabolite M+32 (IV) formation at 5 uM after 60 mins by UPLC-MS analysis; assay type: ADME, microsome; conditions: 1 h
[29] = AUC (0 to t) in humanized NOD.Cg-Prkdcscid Il2rgtm1Wjl/SzJ mouse infected with Plasmodium falciparum Pf3D70087/N9 at 5 mg/kg, po administered as single dose by LC-MS/MS analysis; assay type: ADME, organism-based; conditions: in vivo
[30] = Drug metabolism in mouse liver microsomes assessed as mono-oxygenation and dehydrogenation metabolite formation at 5 uM after 60 mins by UPLC-MS analysis; assay type: ADME, microsome; conditions: 1 h

Sequence of Cytochrome P450 2C9 (P11712 whole entry): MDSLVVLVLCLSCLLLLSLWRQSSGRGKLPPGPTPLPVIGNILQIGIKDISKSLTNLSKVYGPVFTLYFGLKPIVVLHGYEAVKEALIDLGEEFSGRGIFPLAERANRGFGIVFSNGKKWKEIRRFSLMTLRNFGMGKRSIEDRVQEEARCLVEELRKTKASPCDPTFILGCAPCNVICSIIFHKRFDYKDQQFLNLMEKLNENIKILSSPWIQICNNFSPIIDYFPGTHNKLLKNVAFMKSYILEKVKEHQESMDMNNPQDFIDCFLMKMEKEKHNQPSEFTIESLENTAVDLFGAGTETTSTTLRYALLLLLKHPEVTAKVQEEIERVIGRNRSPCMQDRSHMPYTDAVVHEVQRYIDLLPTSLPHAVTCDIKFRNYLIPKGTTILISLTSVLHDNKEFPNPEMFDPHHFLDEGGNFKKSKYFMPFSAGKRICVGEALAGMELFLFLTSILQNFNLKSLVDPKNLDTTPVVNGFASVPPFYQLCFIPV

SMILES: c1cc(C2CCC3(CC2)OOC2(OO3)C3CC4CC(C3)CC2C4)ccc1CN1CCOCC1 (stereo not drawn)
- Retention_time [1]: 3.68 min
- IC50 (Cytochrome P450 1A2): > 20 µM
- AUC(0-t) [2]: 3000 ng·h/mL
- Drug metabolism [3]: Metabolite_Notdetected
- concentration at 24 h [4]: > 100 ng/mL
- Drug metabolism [5]: Metabolite_Notdetected
- AUC(0-t) [6]: 749 ng·h/mL
- Drug metabolism [7]: Metabolite_Notdetected
- Cmax [8]: 148 ng/mL
- Drug metabolism [9]: Metabolite_Detected
- IC50 (Plasmodium falciparum): 0.0013 µM
- Cmax/dose (Mus musculus [10]): 0.0025 µg/mL/mg/kg
- AUCt/dose (Mus musculus [11]): 0.256 µg·h/mL/mg/kg
- Drug metabolism [12]: Metabolite_Notdetected
- Cmax/dose (Mus musculus [13]): 0.0218 µg/mL/mg/kg
- Stability [14]: Stable
- Drug metabolism [15]: Metabolite_Notdetected
- Drug metabolism [16]: Metabolite_Notdetected
- Drug metabolism [17]: Metabolite_Notdetected
- metabolised at 1 h, 5 µM [18]: 82%
- IC50 (Cytochrome P450 2C9): > 20 µM
- Drug metabolism [19]: Metabolite_Notdetected
- Drug metabolism [20]: Metabolite_Detected
- Drug metabolism [21]: Metabolite_Notdetected
- Drug metabolism [22]: Metabolite_Notdetected
- Tmax [23]: 1 h
- microsomal CLint at 5 µM [24]: 20 µL/min/mg
- Drug metabolism [25]: Metabolite_Notdetected
- bioavailability [26]: 52%
- half-life at 5 µM [27]: 1.45 h
- Drug metabolism [28]: Metabolite_Detected
- AUC(0-t) [29]: 1280 ng·h/mL
- Drug metabolism [30]: Metabolite_Notdetected
